Where two headings read alike, the source gives them in different places.
Key:
APTT = test: Activated partial thromboplastin (APTT) coagulation assay after dabigatran; type: in vivo, human; conditions: for APTT-peak / APTT-0 h / APTT-trough: NVAF patients, 110 mg bid, target range 26.9–37.6 s; for APTT-peak: peak (1.0–3.0 h post dose); for APTT-0 h: pre-dose; for APTT-trough: trough (>10 h after previous dose)
Experimental: (§1) For detecting pharmacodynamics (PD) parameters, the sampling times were 0, 2, 8, 12 h after dabigatran administration respectively. In patients’ population, plasma sample obtained longer than 10 h after the previous dose was considered for trough concentration; average 2.0 h (range: 1.0–3.0 h) post dose was considered for peak concentration. The reference detection range refers to plasma dabigatran concentrations between the 2.5th and 97.5th percentiles of all values determined by HPLC-MS/MS.
(§2) Blood samples were collected via 2.7 ml sodium citrate tubes, then centrifuged for 15 min at 2,500 g at room-temperature. The plasma samples were stored at –70°C within 6 months until analysis.
(§3) Pharmacodynamic assessment was performed at a centralized facility in Peking University First Hospital. The HTI, PT, and APTT were measured on Sysmex CS-2100i (Sysmex, Kobe, Japan). PT and APTT were tested using Coagulation Method Assay Kits (Thromborel-S® and Actin®, Marburg, Germany). The normal reference range for the PT and APTT assays used in this study are 10.1–12.6 s for PT and 26.9–37.6 s for APTT. Concentration detection is divided into two standard curves, one is suitable for normal and slightly high concentration range, another one is suitable for low concentration range. When the concentration is below 120 ng/ml, the low concentration standard curve is switched to obtain a more accurate concentration value. […] PD assessment was all performed in our hospital.

[1] = Plasma dabigatran concentration and pharmacokinetics by HPLC-MS/MS; type: in vivo, human; conditions: healthy subjects, single dose 150 mg; for AUC(0-t): 150 mg
Experimental: The venous blood samples were collected 0 h and post-dose at 16–19 time points in 3.0 ml EDTA-K2 tubes and centrifuged at 4°C for 10 min at 3,000 g. The plasma samples were stored at –80°C until analysis.
The total anti-thrombin effect from dabigatran etexilate is a result of dabigatran (alone) and dabigatran acylglucuronides. An assay for total dabigatran (the sum of free dabigatran and the contribution from dabigatran acylglucuronides) in plasma is developed, validated and applied ([21], [22]). Thus, dabigatran concentrations were determined by validated HPLC-MS/MS assays at Shimadzu 30 series, API 6500 (Applied Biosystems, Inc., American). The standard calibration curves with good linearity were built for dabigatran within the concentration range of 1.0–300.0 ng/mL, and the lower limit of quantitation (LOQ) was 1.0 ng/mL. The precision (% CV), intra-batch accuracy and inter-batch accuracy were within 6.2–9.2, 90.3–104.3, and 94.6–103.8%, respectively. PK parameters were analyzed by non-compartmental methods using Phoenix Win-Non-lin 7.0 (A Certara™ Company, Princeton, NJ, United States). Cmax (Maximum concentration) and Tmax (the time to Cmax) were obtained from the observed data, while terminal half-life (t1/2), plasma concentration vs. time from 0 to the last measurable time point (AUC0–t) were calculated.
as §1

PT = test: Prothrombin time (PT) coagulation assay after dabigatran; type: in vivo, human; conditions: for PT-peak / PT-0 h / PT-trough: NVAF patients, 110 mg bid, target range 10.1–12.6 s; for PT-peak: peak (1.0–3.0 h post dose); for PT-0 h: pre-dose; for PT-trough: trough (>10 h after previous dose)
Experimental: as §1, §2, §3

[2] = Hemoclot thrombin inhibitor (HTI) assay of plasma dabigatran concentration; type: in vivo, human; conditions: for HTI-peak: peak (1.0–3.0 h post dose); for HTI-trough: trough (>10 h after previous dose)
Experimental: as §1, §2, §3

[3] = parameters: method as in PMID 23718677; conditions: dabigatran 150 mg, American population; cited from earlier work
[4] = 183 patients, 110 mg bid, HTI assay, about 500 blood samples
[5] = NVAF patients, 110 mg bid, HTI-derived concentration
[6] = NVAF patients, 110 mg bid, HTI-derived concentration, listed as dabigatran

SMILES: [H]/N=C(/N)c1ccc(NCc2nc3cc(C(=O)N(CCC(=O)O)c4ccccn4)ccc3n2C)cc1 [Dabigatran]
- APTT-peak (APTT): 47.89 ± 4.43 s
- APTT-peak (APTT; listed as dabigatran): 47.89 s
- APTT-0 h (APTT): 36.47 ± 8.40 s
- APTT-0 h (APTT; listed as dabigatran): 36.47 s
- APTT-trough (APTT): 39.08 ± 9.74 s
- APTT-trough (APTT; listed as dabigatran): 39.08 s
- APTT–0 h (APTT; healthy subjects, single dose 150 mg, 0 h (pre-dose), reference range 26.9–37.6 s): 27.78 ± 3.50 s
- APTT–2 h (APTT; healthy subjects, single dose 150 mg, 2 h, reference range 26.9–37.6 s): 39.69 ± 10.69 s
- APTT–8 h (APTT; healthy subjects, single dose 150 mg, 8 h, reference range 26.9–37.6 s): 38.52 ± 6.00 s
- APTT–12 h (APTT; healthy subjects, single dose 150 mg, 12 h, reference range 26.9–37.6 s): 35.22 ± 5.37 s
- C–2 h ([1]; 2 h, HPLC-MS/MS, mean ± SD): 85.51 ± 73.77 ng/mL
- C–8 h ([1]; 8 h, HPLC-MS/MS, mean ± SD): 57.60 ± 23.46 ng/mL
- C–12 h ([1]; 12 h, HPLC-MS/MS, mean ± SD): 36.40 ± 3.15 ng/mL
- Cmax ([1]; mean ± SD): 139.99 ± 55.61 ng/mL
- reference detection range ([1]; 2.5th to 97.5th percentiles of plasma concentrations by HPLC-MS/MS): 33 to 159 ng/mL
- AUC(0-t) ([1]; human, plasma, oral, mean ± SD, read-out: AUC0–12): 1290 ± 442 ng·h/mL
- AUC(0-t) ([1]; human, plasma, oral, mean ± SD, read-out: AUC0–t): 1250 ± 442 ng·h/mL
- concentration at 0 h ([1]; human, plasma, oral, 0 h (pre-dose), HPLC-MS/MS, mean ± SD, read-out: C–0 h): 0 ng/mL
- concentration at 2 h ([1]; human, plasma, oral, 2 h, HPLC-MS/MS, mean ± SD, read-out: C–2 h): 85.5 ng/mL
- concentration at 8 h ([1]; human, plasma, oral, 8 h, HPLC-MS/MS, mean ± SD, read-out: C–8 h): 57.6 ng/mL
- concentration at 12 h ([1]; human, plasma, oral, 12 h, HPLC-MS/MS, mean ± SD, read-out: C–12 h): 36.4 ng/mL
- Tmax ([1]; human, plasma, oral, mean ± SD): 3.61 ± 2.09 h
- half-life ([1]; human, plasma, oral, mean ± SD): 8.78 ± 1.33 h
- PT-peak (PT): 14.04 ± 3.50 s
- PT-peak (PT; listed as dabigatran): 14.04 s
- PT-0 h (PT): 15.58 ± 5.90 s
- PT-0 h (PT; listed as dabigatran): 15.58 s
- PT-trough (PT): 13.79 ± 6.15 s
- PT-trough (PT; listed as dabigatran): 13.79 s
- PT–0 h (PT; healthy subjects, single dose 150 mg, 0 h (pre-dose), reference range 10.1–12.6 s): 11.74 ± 1.88 s
- PT–2 h (PT; healthy subjects, single dose 150 mg, 2 h, reference range 10.1–12.6 s): 12.83 ± 1.58 s
- PT–8 h (PT; healthy subjects, single dose 150 mg, 8 h, reference range 10.1–12.6 s): 12.44 ± 1.31 s
- PT–12 h (PT; healthy subjects, single dose 150 mg, 12 h, reference range 10.1–12.6 s): 11.97 ± 0.92 s
- expected peak levels range [2, 4]: 95 to 196 ng/mL
- expected trough levels range [2, 4]: 36 to 92 ng/mL
- HTI-peak [2, 5]: 145.57 ± 50.16 ng/mL
- HTI-peak [2, 6]: 145.57 ng/mL
- HTI-0 h ([2]; NVAF patients, 110 mg bid, pre-dose, HTI-derived concentration): 4.06 ± 2.92 ng/mL
- HTI-trough [2, 5]: 63.74 ± 27.95 ng/mL
- HTI-trough [2, 6]: 63.74 ng/mL
- HTI–2 h ([2]; healthy subjects, single dose 150 mg, 2 h, HTI-derived concentration): 88.89 ± 79.08 ng/mL
- HTI–8 h ([2]; healthy subjects, single dose 150 mg, 8 h, HTI-derived concentration): 61.91 ± 27.46 ng/mL
- HTI–12 h ([2]; healthy subjects, single dose 150 mg, 12 h, HTI-derived concentration): 40.00 ± 16.63 ng/mL
- concentration at 0 h ([2]; human, plasma, oral, NVAF patients, 110 mg bid, pre-dose, HTI-derived concentration): 4.06 ng/mL
- concentration at 0 h ([2]; human, plasma, oral, healthy subjects, single dose 150 mg, 0 h (pre-dose), HTI-derived concentration): 2.99 ± 2.37 ng/mL
- concentration at 2 h ([2]; human, plasma, oral, healthy subjects, single dose 150 mg, 2 h, HTI-derived concentration): 88.9 ng/mL
- concentration at 8 h ([2]; human, plasma, oral, healthy subjects, single dose 150 mg, 8 h, HTI-derived concentration): 61.9 ng/mL
- concentration at 12 h ([2]; human, plasma, oral, healthy subjects, single dose 150 mg, 12 h, HTI-derived concentration): 40 ng/mL
- reference detection range [3]: 27 to 411 ng/mL
